Reference: patent US7087714B2, “Mu-Opiod receptor splice variant polypeptides” (Memorial Sloan-Kettering Cancer Center, priority 2001, dated 2006)

Experiments:
[1] = tested on: exon 11-containing mRNA; experiment: RT-PCR of exon 11-containing mRNA in brains of mice given antisense i.c.v.; format: in vivo, mouse; details: 10 μg i.c.v. daily for 4 days, brain RNA on fifth day
[2] = tested on: exon 11-like immunoreactivity (E11-LI); experiment: Immunohistochemical labeling (exon 11-like immunoreactivity) in striatum after antisense treatment; format: in vivo, mouse; details: 10 μg i.c.v. daily for 4 days, perfused on fifth day; p<0.05
[3] = tested on: MOR-1 gene; experiment: In vivo antisense mapping, radiant heat tailflick assay of opioid analgesia; set-up: species or system mice; details: 5 μg oligodeoxynucleotide on days 1, 3 and 5, tailflick on day 6

antisense E11A: antisense oligodeoxynucleotide targeting exon 11: 5′GACAGTCACTGGTGCCTATGCAAT3′ (SEQ ID NO 48) (DNA, backbone not given here)
lowering of the levels of exon 11 expression (RT-PCR) [1]: approximately 40%
downregulation of immunohistochemical labeling in the striatum compared to the control group [2]: over 50%

exon 1 probe: antisense probe targeting exon 1: 5′CGCCCCAGCCTCTTCCTCT3′ (SEQ ID NO 47) (listed as DNA, chemistry not given here)
effect on spinal (i.t.) M6G analgesia [3]: inactive
effect on spinal (i.t.) morphine analgesia [3]: not spinally
effect on supraspinal (i.c.v.) M6G analgesia [3]: inactive
effect on supraspinal (i.c.v.) morphine analgesia [3]: reduced

mismatch E11A: mismatch probe based upon the 11a antisense probe: 5′GACGATCACGTGTGCTCATGACAT3′ (SEQ ID NO 50) (listed as DNA, chemistry not given here) [reference compound]
lowering of the levels of exon 11 expression (RT-PCR) [1]: inactive
downregulation of immunohistochemical labeling in the striatum compared to the control group [2]: without effect
effect on opioid (morphine or M6G) analgesia, mismatch control [3]: inactivity
